This is an account of results in patent publication US20100190688A1, “Tetrapeptide analogs” (priority 2004, published 2010).

Test [1] concerns the target T1, BIR3-mediated Caspase-9 inhibition (UniProt Q9R0I6).
T1 construct: Nothing is printed for this assay
The test is described as follows: Caspase-9 rescue assay (relief of BIR3-mediated Caspase-9 inhibition). Conditions: average EC50, substrate Ac-LEHD-amc, pH 6.5. The class given is biochemical, human Caspase-9; Rat or Chicken BIR3. The method, then:
Additionally the compounds and compositions can be evaluated for their ability to achieve relief of BIR3-mediated Caspase-9 inhibition by measuring Caspase-9 reactivation. The fluorogenic substrate Ac-LEHD-7-amido-4-methylcoumarin is used in these methods. EC50 values of tested BIR3 inhibitors or Caspase-9 rescuers is calculated from the percentage of Caspase-9 reactivation in the mixtures containing serially diluted concentrations of tested compound. Typically, 10-point curves are generated for such EC50 determination.
Relief of BIR3-mediated Caspase-9 inhibition by BIR3 inhibitors was assayed by measuring Caspase-9 reactivation using the fluorogenic substrate Ac-LEHD-7-amido-4-methylcoumarin. A truncated form of human Caspase-9 that lacks the N-terminal Caspase recruitment domain (EPro-Caspase-9 or p35/p12) was used in the assay. This form of the enzyme has the full catalytic activity and the same substrate specificity as the full-length protein in the Apaf-1/Cytochrome C/dATP/Caspase-9 reconstituted system. Rat or Chicken BIR3 was used in this assay. […] This mixture was incubated for 40 min to allow equilibration at 25° C., and the assay progression was subsequently followed by monitoring the formation of fluorescent 7-amido-4-methylcoumarin over time at 460 nm using an excitation wavelength of 360 nm. […] EC50 values of tested BIR3 inhibitors or Caspase-9 rescuers were calculated from the percentage of Caspase-9 reactivation in the mixtures containing serially diluted concentrations of tested compound.

The next test has as its target BIR3 domain of rat XIAP (Rattus norvegicus, UniProt Q9R0I6). The test can be described thus: Fluorescence polarization assay, binding to BIR3 from rat XIAP. On the technique in general: Polarisation of emitted light reports the rotation of a fluorescent probe.

Structures can show the parent of a compound that is named as a salt.

BIR3 domain of rat XIAP, sequence (Q9R0I6 241-355): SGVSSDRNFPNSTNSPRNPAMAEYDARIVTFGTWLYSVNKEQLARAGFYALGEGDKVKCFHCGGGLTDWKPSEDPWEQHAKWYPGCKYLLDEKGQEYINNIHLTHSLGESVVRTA
Protocol for BIR3 domain of rat XIAP: In fluorescence polarization assays a fluorescent probe is used. The binding affinity of compounds to BIR3 is measured by competitive displacement of a fluorescent probe using fluorescence polarization anisotropy. […] In other embodiments, the probe used is 6-(6-Hydroxy-3-oxo-3H-xanthen-9-yl)-N-(5-(2-methylamino-propionylamino)-6-oxo-6-[4-(1,2,3,4-tetrahydro-naphthalen-1-ylcarbamoyl)-thiazolidin-3-yl]-hexyl)-isophthalamic acid.
The binding affinity of compounds provided herein for rat BIR3 was measured by competitive displacement of a fluorescent probe using fluorescence polarization anisotropy. […] Control conditions were set up on each plate and include free probe 1 alone (5 nM), fully bound probe (5 μM BIR3+5 nM probe 1) and binding buffer blank. The-EC50 of binding was computed from a 4-parameter fit of the measured anisotropies using the SoftMax Pro 4.6 software package (Molecular Dynamics, Sunnyvale, Calif.).
Alternatively, probe 1 was substituted with probe 2: 6-(6-Hydroxy-3-oxo-3H-xanthen-9-yl)-N-{5-(2-methylamino-propionylamino)-6-oxo-6-[4-(1,2,3,4-tetrahydro-naphthalen-1-ylcarbamoyl)-thiazolidin-3-yl]-hexyl}-isophthalamic acid, for rat BIR3 and the concentrations of assay components changed. […] Controls were adjusted accordingly.

In general, EC50 refers to the concentration at which the effect is half-maximal. With `CNC(C)C(=O)NC(C(=O)N1CSCC1C(=O)NC1CCCc2ccccc21)C(C)C` (stereo not drawn) [3-[3-Methyl-2-(2-methylamino-propionylamino)-butyryl]-thiazolidine-4-carboxylic acid (1,2,3,4-tetrahydro-naphthalen-1-yl)-amide], the EC50 (in test [1]; at BIR3 domain of rat XIAP) was under 1 µM each time.

Take `CNC(C)C(=O)NC(C(=O)NC(CCCCNS(C)(=O)=O)C(=O)NC1CCCc2ccccc21)C(C)C` (stereo not drawn) [6-Methanesulfonylamino-2-[3-methyl-2-(2-methylamino-propionylamino)-butyrylamino]-hexanoic acid (1,2,3,4-tetrahydro-naphthalen-1-yl)-amide]: the EC50 (in test [1]; on BIR3 domain of rat XIAP) was under 1 µM throughout.

In the case of `CNC(C)C(=O)NC(C(=O)NC(COCc1ccccc1)C(=O)NC1CCCc2ccccc21)C(C)C` (stereo not drawn) [N-[2-Benzyloxy-1-(1,2,3,4-tetrahydro-naphthalen-1-ylcarbamoyl)-ethyl]-3-methyl-2-(2-methylamino-propionylamino)-butyramide], the EC50 in test [1] is 1 to 10 µM; at BIR3 domain of rat XIAP it was under 1 µM.

Consider `CNC(C)C(=O)NC(C(=O)N1CCCC1C(=O)NN(Cc1ccccc1)Cc1ccccc1)C(C)(C)C` (stereo not drawn) [N-{1-[2-(N′,N′-Dibenzyl-hydrazinocarbonyl)-pyrrolidine-1-carbonyl]-2,2-dimethyl-propyl}-2-methylamino-propionamide], for which the figures for the EC50 (in test [1]; at BIR3 domain of rat XIAP) were 1 to 10 µM and under 1 µM, respectively.

As to `CNC(C)C(=O)NC(C(=O)NC(CCCCNS(=O)(=O)c1ccc([N+](=O)[O-])cc1)C(=O)NC1CCCc2ccccc21)C(C)C` (stereo not drawn) [2-[3-Methyl-2-(2-methylamino-propionylamino)-butyrylamino]-6-(4-nitro-benzenesulfonylamino)-hexanoic acid (1,2,3,4-tetrahydro-naphthalen-1-yl)-amide], the EC50 (in test [1]; at BIR3 domain of rat XIAP) was under 1 µM throughout.

As for `CNC(C)C(=O)NC(C(=O)N1CCSC1C(=O)NC1CCCc2ccccc21)C(C)C` (stereo not drawn) [3-[3-Methyl-2-(2-methylamino-propionylamino)-butyryl]-thiazolidine-2-carboxylic acid (1,2,3,4-tetrahydro-naphthalen-1-yl)-amide], the EC50 (in test [1]; at BIR3 domain of rat XIAP) was under 1 µM each time.

As to `CNC(C)C(=O)NC1CCc2cccc3c2N(C1=O)C(C(=O)NC1CCCc2ccccc21)C3` (stereo not drawn) [5-(2-Methylamino-propionylamino)-4-oxo-1,2,4,5,6,7-hexahydro-azepino[3,2,1-hi]indole-2-carboxylic ′acid (1,2,3,4-tetrahydro-naphthalen-1-yl)-amide], the values for the EC50 (in test [1]; at BIR3 domain of rat XIAP) were 1 to 10 µM and under 1 µM, respectively.

For the compound `CNC(C)C(=O)NC(C(=O)N1CCCC1C(=O)NN(C)c1ccccc1)C(C)(C)C` (stereo not drawn) [N-{2,2-Dimethyl-1-[2-(N′-methyl-N′-phenyl-hydrazinocarbonyl)-pyrrolidine-1-carbonyl]-propyl}-2-methylamino-propionamide], the EC50 in test [1] was 1 to 10 µM; at BIR3 domain of rat XIAP, under 1 µM.

Turning to `CNC(C)C(=O)NC(C(=O)N1Cc2ccccc2CC1C(=O)NC(Cc1ccccc1)Cc1ccccc1)C(C)C` (stereo not drawn) [2-[3-Methyl-2-(2-methylamino-propionylamino)-butyryl]-1,2,3,4-tetrahydro-isoquinoline-3-carboxylic acid (1-benzyl-2-phenyl-ethyl)-amide], the concentration for a half-maximal effect (EC50) is 1 to 10 µM in test [1] and under 1 µM on BIR3 domain of rat XIAP.

On to `CNC(C)C(=O)NC(CCCCNC(=O)OCC1c2ccccc2-c2ccccc21)C(=O)N1CSCC1C(=O)NC1CCCc2ccccc21` (stereo not drawn) [{5-(2-Methylamino-propionylamino)-6-oxo-6-[4-(1,2,3,4-tetrahydro-naphthalen-1-ylcarbamoyl)-thiazolidin-3-yl]-hexyl}-carbamic acid 9H-fluoren-9-ylmethyl ester], for which the EC50 (in test [1]; on BIR3 domain of rat XIAP) was under 1 µM each time.

In the case of `CNC(C)C(=O)NC(C(=O)NC(CCCCNC(C)=O)C(=O)NC1CCCc2ccccc21)C(C)C` (stereo not drawn) [6-Acetylamino-2-[3-methyl-2-(2-methylamino-propionylamino)-butyrylamino]-hexanoic acid (1,2,3,4-tetrahydro-naphthalen-1-yl)-amide], the EC50 was 1 to 10 µM in test [1] and under 1 µM at BIR3 domain of rat XIAP.

Consider `CCCCCN1C(=O)CCC(NC(=O)C(C)NC)C(=O)N1CC(=O)NC1CCCc2ccccc21` (stereo not drawn) [N-{3,7-Dioxo-1-pentyl-2-[(1,2,3,4-tetrahydro-naphthalen-1-ylcarbamoyl)-methyl]-[1,2]diazepan-4-yl}-2-methylamino-propionamide], for which the half-maximal effective concentration (EC50) is over 10 µM in test [1] and 1 to 10 µM on BIR3 domain of rat XIAP.

Consider `CNC(C)C(=O)NC(C(=O)NC(CCCCNS(=O)(=O)Cc1ccccc1)C(=O)NC1CCCc2ccccc21)C(C)C` (stereo not drawn) [2-[3-Methyl-2-(2-methylamino-propionylamino]-butyrylamino]-6-phenylmethanesulfonylamino-hexanoic acid (1,2,3,4-tetrahydro-naphthalen-1-yl)-amide], for which the EC50 (in test [1]; on BIR3 domain of rat XIAP) was under 1 µM in each case.

Take `CNC(C)C(=O)NC(C(=O)N1CCSCC1C(=O)NC1CCCc2ccccc21)C(C)C` (stereo not drawn) [4-[3-Methyl-2-(2-methylamino-propionylamino)-butyryl]-thiomorpholine-3-carboxylic acid (1,2,3,4-tetrahydro-naphthalen-1-yl)-amide]: the EC50 was 1 to 10 µM in test [1] and under 1 µM on BIR3 domain of rat XIAP.

For `CNC(C)C(=O)NC(C(=O)NC(CCO)C(=O)NC1CCCc2ccccc21)C(C)C` (stereo not drawn) [N-[3-Hydroxy-1-(1,2,3,4-tetrahydro-naphthalen-1-ylcarbamoyl)-propyl]-3-methyl-2-(2-methylamino-propionylamino)-butyramide], the figures for the EC50 (in test [1]; on BIR3 domain of rat XIAP) were 1 to 10 µM and under 1 µM, respectively.

Take `CCCCC(NC(=O)C(NC(=O)C(C)NC)C(C)C)C(=O)NC1CCCc2ccccc21` (stereo not drawn) [2-[3-Methyl-2-(2-methylamino-propionylamino)-butyrylamino]-hexanoic acid (1,2,3,4-tetrahydro-naphthalen-1-yl)-amide]: the EC50 was 1 to 10 µM in test [1] and under 1 µM at BIR3 domain of rat XIAP.

In the case of `CNC(C)C(=O)NC(C(=O)N1CS(=O)(=O)CC1C(=O)NC1CCCc2ccccc21)C(C)C` (stereo not drawn) [3-[3-Methyl-2-(2-methylamino-propionylamino)-butyryl]-1,1-dioxo-1l6-thiazolidine-4-carboxylic acid (1,2,3,4-tetrahydro-naphthalen-1-yl)-amide], the EC50 (in test [1]; on BIR3 domain of rat XIAP) was under 1 µM each time.

In the case of `CCCCN(CCCC)CCCCC(NC(=O)C(NC(=O)C(C)NC)C(C)C)C(=O)NC1CCCc2ccccc21` (stereo not drawn) [6-Dibutylamino-2-[3-methyl-2-(2-methylamino-propionylamino)-butyrylamino]-hexanoic acid (1,2,3,4-tetrahydro-naphthalen-1-yl)-amide], the EC50 (in test [1]; on BIR3 domain of rat XIAP) was under 1 µM each time.

For `CN[C@@H](C)C(=O)N[C@H]1CCCN2CC[C@@H](C(=O)N[C@@H]3CCCc4ccccc43)N2C1=O` [8-(2-Methylamino-propionylamino)-9-oxo-hexahydro-pyrazolo[1,2-a][1,2]diazepine-1-carboxylic acid (1,2,3,4-tetrahydro-naphthalen-1-yl)-amide], the EC50 in test [1] was 1 to 10 µM; on BIR3 domain of rat XIAP, under 1 µM.

For the compound `CNC(C)C(=O)NC(C(=O)N1CSC(C)(C)C1C(=O)NC1CCCc2ccccc21)C(C)C` (stereo not drawn) [5,5-Dimethyl-3-[3-methyl-2-(2-methylamino-propionylamino)-butyryl]-thiazolidine-4-carboxylic acid (1,2,3,4-tetrahydro-naphthalen-1-yl)-amide], the EC50 (in test [1]; on BIR3 domain of rat XIAP) was under 1 µM each time.

Consider `CNC(C)C(=O)NC(C(=O)N1CSCC1C(=O)NC(c1ccccc1)c1ccccc1)C(C)C` (stereo not drawn) [3-[3-Methyl-2-(2-methylamino-propionylamino)-butyryl]-thiazolidine-4-carboxylic acid benzhydryl-amide], for which the EC50 (in test [1]; at BIR3 domain of rat XIAP) was under 1 µM in each case.

`CNC(C)C(=O)NC(C(=O)N(CCc1ccccc1)CC(=O)NC1CCCc2ccccc21)C(C)(C)C` (stereo not drawn) [3,3-Dimethyl-2-(2-methylamino-propionylamino)-N-phenethyl-N-[(1,2,3,4-tetrahydro-naphthalen-1-ylcarbamoyl)-methyl]-butyramide TFA salt]: the EC50 in test [1] is over 10 µM; at BIR3 domain of rat XIAP it was 1 to 10 µM.

For `CN[C@@H](C)C(=O)N[C@H](C(=O)N[C@@H](CCCCNS(=O)(=O)c1ccc(C)cc1)C(=O)NC1CCCc2ccccc21)C(C)C` (stereo in doubt) [2-[3-Methyl-2-(2-methylamino-propionylamino)-butyrylamino]-6-(toluene-4-sulfonylamino)-hexanoic acid (1,2,3,4-tetrahydro-naphthalen-1-yl)-amide], the EC50 (in test [1]; on BIR3 domain of rat XIAP) was under 1 µM throughout.

As for `CNC(C)C(=O)NC(C(=O)N1CC2(CC1C(=O)NC1CCCc3ccccc31)SCCS2)C(C)C` (stereo not drawn) [7-[3-Methyl-2-(2-methylamino-propionylamino)-butyryl]-1,4-dithia-7-aza-spiro[4.4]nonane-8-carboxylic acid (1,2,3,4-tetrahydro-naphthalen-1-yl)-amide], the half-maximal effective concentration (EC50) was 1 to 10 µM in test [1] and under 1 µM at BIR3 domain of rat XIAP.
